For 27 molecules, IC50 results are on record in patent US10131644B2, “Aryl sultam derivatives as RORc modulators” (Genentech, Inc., priority 2014, dated 2018).

The assay deals with T1, RORc (Homo sapiens, UniProt P51449).
T1 sequence (P51449 269-508 limits assumed): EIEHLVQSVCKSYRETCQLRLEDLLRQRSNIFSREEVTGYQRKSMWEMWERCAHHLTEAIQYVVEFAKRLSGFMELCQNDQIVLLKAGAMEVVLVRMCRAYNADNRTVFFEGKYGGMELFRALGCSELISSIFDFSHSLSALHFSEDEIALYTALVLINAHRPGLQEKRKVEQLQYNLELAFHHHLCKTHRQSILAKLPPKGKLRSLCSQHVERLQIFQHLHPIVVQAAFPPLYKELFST
Briefly: In vitro RORc ligand binding assay (25-[3H]hydroxycholesterol displacement). Particulars: IC50, IC50 values for RORc; unit inferred.

Protocol: This assay was used to determine a compound's potency in inhibiting activity of RORc by determining, Kiapp, IC50, or percent inhibition values.
On day of the assay, 100 uL of 0.05% CHAPS (in deionized H2O) was added to all wells of the GFB Unifilter plate and allowed soak for 1 h. A wash buffer of 50 mM HEPES (pH 7.4), 150 mM NaCl, and 5 mM MgCl2 was prepared to wash the filter plate. To prepare an assay buffer, BSA was added to the wash buffer to reach 0.01% and DTT was added to reach 1 mM.
The 20× compound stocks were diluted in DMSO with Assay Buffer 4-fold to reach 5× the final test concentration in 25% DMSO (10 uL compound+30 uL Assay Buffer). Solutions were mixed by aspiration several times with a pipette set on 50 uL volume. For the assay, 10 uL of 5× compound stock solutions in 25% DMSO were added to the assay plate in duplicate.
For two point screening, 10 mM stock compound solutions were diluted in DMSO to obtain 200 uM (20× the high test concentration) and then diluted 10-fold further to reach 20 uM (20× the low test concentration). The 20× stocks were diluted 4-fold with Assay Buffer (10 uL compound+30 uL Assay Buffer) to reach 5× the test concentrations (50 uM and 5 uM) and 10 uL were added to two assay plates for the duplicate wells. With each concentration tested on 2 plates, each set of 80 compounds used 4 assay plates (1 uM and 10 uM, with n=2).
For 25-hydroxycholesterol in 25% DMSO/75% Assay Buffer; 10 uL per well was used for NSB samples. Wells for Total Binding and No Receptor sample determination contained 10 uL of 25% DMSO/75% Assay Buffer per well.
Add 20 uL to all wells to reach 6 nM final in the assay.
Stock receptor solution was diluted in assay buffer to obtain 1.5 ug/mL in Assay Buffer. 20 uL was added to all wells. For No R samples, 20 uL Assay Buffer was substituted for receptor solution.
Assay plates were 96-well polypropylene V-bottom plates. 10 uL of 5× compound in 25% DMSO/75% Assay Buffer was added to Test wells. 10 uL of 25% DMSO/75% Assay Buffer was added to Total Binding or No Receptor wells. 10 uL of 5 uM 25-hydroxycholesterol in 25% DMSO/75% Assay Buffer was added to NSB wells. […] 20 uL of 1.5 ug/mL RORc receptor was added to wells (or 40 uL Assay Buffer to No R wells). Following addition to the wells, the plates were incubated 3 h at 25° C.
Using a Packard Filtermate Harvester, the filter plate were washed 4 times following transfer of the incubated samples. Plates were dry-filtered completely (2 h at 50° C. or overnight at room temperature). 50 uL Microscint 0 was added to all wells and read on Topcount protocol Inverted.
For NSB wells, 1 uM 25-hydroxycholesterol was also present.

For `CC(=O)N1CCC(OCC(O)CO)(c2cc(F)c(CN3[C@@H](C)CC[C@H](c4ccccc4)S3(=O)=O)cc2F)CC1` (stereo in doubt) [Compound 168, 1-[4-[2,5-difluoro-4-[[(3S,6R)-3-methyl-1,1-dioxo-6-phenyl-thiazinan-2-yl]methyl]phenyl]-4-[(2S)-2,3-dihydroxypropoxy]-1-piperidyl]ethanone], the 50% inhibitory concentration (IC50) (commonly the concentration at which inhibition is half-maximal) was found to be 35.5 nM. `CC(=O)N1CCC(OCC(O)CO)(c2cc(F)c(CN3[C@@H](C)CC[C@H](c4ccccc4)S3(=O)=O)cc2F)CC1` (stereo in doubt) [Compound 169, 1-[4-[2,5-difluoro-4-[[(3S,6R)-3-methyl-1,1-dioxo-6-phenyl-thiazinan-2-yl]methyl]phenyl]-4-[(2R)-2,3-dihydroxypropoxy]-1-piperidyl]ethanone] came in with an IC50 of 20.8 nM. In the case of `C[C@H]1CC[C@H](c2ccccc2)S(=O)(=O)N1Cc1cc(F)c(C2(OCC(O)CO)CCOCC2)cc1F` (stereo in doubt) [Compound 170, (2S)-3-[4-[2,5-difluoro-4-[[(3S,6R)-3-methyl-1,1-dioxo-6-phenyl-thiazinan-2-yl]methyl]phenyl]tetrahydropyran-4-yl]oxypropane-1,2-diol], the IC50 came to 11.7 nM. This IC50 is about 1.8-fold lower than that of the molecule before. The same measure for `C[C@H]1CC[C@H](c2ccccc2)S(=O)(=O)N1Cc1cc(F)c(C2(OCC(O)CO)CCOCC2)cc1F` (stereo in doubt) [Compound 171, (2R)-3-[4-[2,5-difluoro-4-[[(3S,6R)-3-methyl-1,1-dioxo-6-phenyl-thiazinan-2-yl]methyl]phenyl]tetrahydropyran-4-yl]oxypropane-1,2-diol]: 11.6 nM; for `C[C@H]1CC[C@H](c2ccccc2)S(=O)(=O)N1Cc1ccc(C2(O)CCC3(CC2)OCCO3)cc1F` [Compound 24, 8-[3-Fluoro-4-((3S,6R)-3-methyl-1,1-dioxo-6-phenyl-[1,2]thiazinan-2-ylmethyl)-phenyl]-1,4-dioxa-spiro[4.5]decan-8-ol]: 180 nM; for `C[C@H]1CC[C@H](c2ccccc2)S(=O)(=O)N1Cc1ccc([C@]2(C(N)=O)CC[C@@H](n3cnnc3)CC2)cc1F` [Compound 25, 1-[3-Fluoro-4-((3S,6R)-3-methyl-1,1-dioxo-6-phenyl-[1,2]thiazinan-2-ylmethyl)-phenyl]-4-[1,2,4]triazol-4-yl-cyclohexanecarboxylic acid amide]: 22 nM.

Regarding `C[C@H]1CC[C@H](c2ccccc2)S(=O)(=O)N1Cc1ccc([C@]2(CO)CC[C@@H](n3cnnc3)CC2)cc1F` [Compound 26, {1-[3-Fluoro-4-((3S,6R)-3-methyl-1,1-dioxo-6-phenyl-[1,2]thiazinan-2-ylmethyl)-phenyl]-4-[1,2,4]triazol-4-yl-cyclohexyl}-methanol], the IC50 is 32 nM. This IC50 and that of the molecule before are within 1.5-fold of each other. `COC(=O)C1(c2ccc(CN3[C@@H](C)CC[C@H](c4ccccc4)S3(=O)=O)cc2)CCOCC1` [Compound 27, 4-[4-((3S,6R)-3-Methyl-1,1-dioxo-6-phenyl-[1,2]thiazinan-2-ylmethyl)-phenyl]-tetrahydro-pyran-4-carboxylic acid methyl ester] yielded an IC50 of 500 nM. On to `C[C@H]1CCC(c2ccccc2)S(=O)(=O)N1Cc1ccc(C2(C(=O)O)CCOCC2)cc1` (stereo partly drawn) [Compound 29, 4-[4-((S)-3-Methyl-1,1-dioxo-6-phenyl-[1,2]thiazinan-2-ylmethyl)-phenyl]-tetrahydro-pyran-4-carboxylic acid], for which the IC50 was found to be 4400 nM. `C[C@H]1CC[C@H](c2ccccc2)S(=O)(=O)N1Cc1ccc(C2(C#N)CCOCC2)cc1` [Compound 30, 4-[4-((3S,6R)-3-Methyl-1,1-dioxo-6-phenyl-[1,2]thiazinan-2-ylmethyl)-phenyl]-tetrahydro-pyran-4-carbonitrile] came in with an IC50 of 680 nM. Take `C[C@H]1CC[C@H](c2ccccc2)S(=O)(=O)N1Cc1ccc(C2(C(N)=O)CCOCC2)cc1` [Compound 31, 4-[4-((3S,6R)-3-Methyl-1,1-dioxo-6-phenyl-[1,2]thiazinan-2-ylmethyl)-phenyl]-tetrahydro-pyran-4-carboxylic acid amide]: the concentration for half-maximal inhibition (IC50) was determined as 420 nM. For `C[C@H]1CC[C@H](c2ccccc2)S(=O)(=O)N1Cc1ccc(C2(CO)CCOCC2)cc1` [Compound 32, {4-[4-((3S,6R)-3-Methyl-1,1-dioxo-6-phenyl-[1,2]thiazinan-2-ylmethyl)-phenyl]-tetrahydro-pyran-4-yl}-methanol] the value was 310 nM; for `CC(=O)N[C@H]1CC[C@](C#N)(c2ccc(CN3[C@@H](C)CC[C@@H](c4ccccc4)S3(=O)=O)c(F)c2)CC1` [Compound 33, N-{4-Cyano-4-[3-fluoro-4-((3S,6S)-3-methyl-1,1-dioxo-6-phenyl-[1,2]thiazinan-2-ylmethyl)-phenyl]-cyclohexyl}-acetamide], 1800 nM; for `CC(=O)N[C@H]1CC[C@](C#N)(c2ccc(CN3[C@@H](C)CC[C@H](c4ccccc4)S3(=O)=O)c(F)c2)CC1` [Compound 34, N-{4-Cyano-4-[3-fluoro-4-((3S,6R)-3-methyl-1,1-dioxo-6-phenyl-[1,2]thiazinan-2-ylmethyl)-phenyl]-cyclohexyl}-acetamide], 2300 nM. The same measure for `C[C@H]1CC[C@H](c2ccccc2)S(=O)(=O)N1Cc1ccc(C2(C(=O)N(C)C)CCOCC2)cc1` [Compound 35, 4-[4-((3S,6R)-3-Methyl-1,1-dioxo-6-phenyl-[1,2]thiazinan-2-ylmethyl)-phenyl]-tetrahydro-pyran-4-carboxylic acid dimethylamide]: 820 nM. Consider `C[C@H]1CC[C@@H](c2ccccc2)S(=O)(=O)N1Cc1cc(F)c([C@]2(O)CC[C@@H](n3cnnc3)CC2)cc1F` [Compound 36, 1-[2,5-Difluoro-4-((3S,6S)-3-methyl-1,1-dioxo-6-phenyl-[1,2]thiazinan-2-ylmethyl)-phenyl]-4-[1,2,4]triazol-4-yl-cyclohexanol], for which the IC50 was 13 nM. This IC50 lies about 63-fold lower than the previous one. In turn, `C[C@H]1CC[C@H](c2ccccc2)S(=O)(=O)N1Cc1cc(F)c([C@]2(O)CC[C@@H](n3cnnc3)CC2)cc1F` [Compound 37, 1-[2,5-Difluoro-4-((3S,6R)-3-methyl-1,1-dioxo-6-phenyl-[1,2]thiazinan-2-ylmethyl)-phenyl]-4-[1,2,4]triazol-4-yl-cyclohexanol] gave an IC50 of 20 nM.

Turning to `COC(=O)C1(c2ccc(CN3[C@@H](C)CC[C@@H](c4ccccc4)S3(=O)=O)c(F)c2)CCOCC1` [Compound 38, 4-[3-Fluoro-4-((3S,6S)-3-methyl-1,1-dioxo-6-phenyl-[1,2]thiazinan-2-ylmethyl)-phenyl]-tetrahydro-pyran-4-carboxylic acid methyl ester], the IC50 came to 480 nM.

In turn, `COC(=O)C1(c2ccc(CN3[C@@H](C)CC[C@H](c4ccccc4)S3(=O)=O)c(F)c2)CCOCC1` [Compound 39, 4-[3-Fluoro-4-((3S,6R)-3-methyl-1,1-dioxo-6-phenyl-[1,2]thiazinan-2-ylmethyl)-phenyl]-tetrahydro-pyran-4-carboxylic acid methyl ester] displayed an IC50 of 190 nM. This IC50 is about 2.5-fold lower than that of the molecule before. For `CNC(=O)C1(c2ccc(CN3[C@@H](C)CCC(c4ccccc4)S3(=O)=O)cc2)CCOCC1` (stereo partly drawn) [Compound 40, 4-[4-((S)-3-Methyl-1,1-dioxo-6-phenyl-[1,2]thiazinan-2-ylmethyl)-phenyl]-tetrahydro-pyran-4-carboxylic acid methylamide] the value was 570 nM.

`C[C@H]1CC[C@@H](c2ccccc2)S(=O)(=O)N1Cc1ccc(C2(O)CCS(=O)(=O)CC2)cc1F` [Compound 41, (3S,6S)-2-(2-fluoro-4-(4-hydroxy-1,1-dioxidotetrahydro-2H-thiopyran-4-yl)benzyl)-3-methyl-6-phenyl-1,2-thiazinane 1,1-dioxide] registered an IC50 of 1200 nM. For `C[C@H]1CC[C@H](c2ccccc2)S(=O)(=O)N1Cc1ccc(C2(O)CCS(=O)(=O)CC2)cc1F` [Compound 42, (3S,6R)-2-(2-fluoro-4-(4-hydroxy-1,1-dioxidotetrahydro-2H-thiopyran-4-yl)benzyl)-3-methyl-6-phenyl-1,2-thiazinane 1,1-dioxide] the value was 190 nM; for `CNC(=O)[C@]1(c2ccc(CN3[C@@H](C)CC[C@H](c4ccccc4)S3(=O)=O)c(F)c2)CC[C@H](n2cnnc2)CC1` [Compound 43, 1-[3-Fluoro-4-((3S,6R)-3-methyl-1,1-dioxo-6-phenyl[1,2]thiazinan-2-ylmethyl)-phenyl]-4-[1,2,4]triazol-4-yl-cyclohexanecarboxylic acid methylamide], 96 nM. With `C[C@H]1CC[C@H](c2ccccc2)S(=O)(=O)N1Cc1ccc(C2(C(=O)O)CCOCC2)cc1F` [Compound 44, 4-[3-Fluoro-4-((3S,6R)-3-methyl-1,1-dioxo-6-phenyl-[1,2]thiazinan-2-ylmethyl)-phenyl]-tetrahydro-pyran-4-carboxylic acid], the concentration for half-maximal inhibition (IC50) was 1100 nM.

On to `C[C@H]1CC[C@@H](c2ccccc2)S(=O)(=O)N1Cc1ccc(C2(C(=O)O)CCOCC2)cc1F` [Compound 45, 4-[3-Fluoro-4-((3S,6S)-3-methyl-1,1-dioxo-6-phenyl-[1,2]thiazinan-2-ylmethyl)-phenyl]-tetrahydro-pyran-4-carboxylic acid], for which the half-maximal inhibitory concentration (IC50) turned out to be 6100 nM. The same measure for `COC(=O)C1(c2ccc(CN3C(C)CCC(c4ccccc4)S3(=O)=O)c(F)c2)CCC(n2cnnc2)CC1` (stereo not drawn) [Compound 46, methyl 1-(3-fluoro-4-((3-methyl-1,1-dioxido-6-phenyl-1,2-thiazinan-2-yl)methyl)phenyl)-4-(4H-1,2,4-triazol-4-yl)cyclohexanecarboxylate]: 54 nM; for `C[C@H]1CC[C@@H](c2ccccc2)S(=O)(=O)N1Cc1ccc(C2(C(=O)NCCO)CCOCC2)cc1F` [Compound 47, 4-(3-fluoro-4-(((3S,6S)-3-methyl-1,1-dioxido-6-phenyl-1,2-thiazinan-2-yl)methyl)phenyl)-N-(2-hydroxyethyl)tetrahydro-2H-pyran-4-carboxamide]: 991 nM.
